In patent publication US11840686B2, “Modulation of prekallikrein (PKK) expression” (Ionis Pharmaceuticals, Inc., priority 2013, dated 2023):
Strand notation (5' to 3'): a small letter for the sugar, then the base; units joined by * are phosphorothioate-linked, units joined directly phosphodiester-linked; [ ] holds rarer units or linkages, { } end groups; capitals alone tell only the bases. e = 2'-O-(2-methoxyethyl) (MOE); k = constrained ethyl (cEt); [5mC] = 5-methylcytosine; d = 2'-deoxy (DNA)

system: human PKK mRNA; test: Antisense inhibition of human PKK mRNA in HepaRG cells, 1,000 nM, MOE/deoxy/cEt oligonucleotides (Example 3); format: cell-based; conditions: HepaRG cells, 1,000 nM antisense oligonucleotide, Table 29
Procedure, shortened: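 HepaRG cells at 20,000 per well electroporated with 1,000 nM 16-mer MOE/cEt/deoxy gapmers (phosphorothioate, 5-methylcytosine). After about 24 h, PKK mRNA measured by qRT-PCR with primer probe set RTS3454, normalized to RIBOGREEN total RNA. Reported as percent inhibition versus untreated cells.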

Row | Substance | % inhibition
1 | 548593 (e[5mC]*eA*kT*d[5mC]*d[5mC]*d[5mC]*dT*dG*dA*d[5mC]*dA*dG*dG*kT*k[5mC]*e[5mC]; antisense) [compound 548593] | 61%
2 | 548591 (eG*eT*kA*dA*dG*d[5mC]*d[5mC]*dT*dT*d[5mC]*dA*d[5mC]*dA*kG*kG*eG; antisense) [compound 548591] | 3%
3 | 548562 (antisense eA*eG*kA*dT*dG*dA*d[5mC]*d[5mC]*dT*dG*d[5mC]*dA*dG*kA*kT*eG) [compound 548562] | 50%

same assay, conditions: HepaRG cells, electroporation with 1,000 nM antisense oligonucleotide, approx. 24 hours, PKK mRNA by RT-PCR (RTS3454), relative to untreated control cells; Table 25 experiment

Row | Substance | % inhibition
4 | 548163 (eA*e[5mC]*k[5mC]*dT*d[5mC]*dG*d[5mC]*dA*dT*dT*dG*dT*d[5mC]*kA*kG*e[5mC]; antisense) [compound 548163] | 46%
5 | 548171 (e[5mC]*eA*kG*dT*dT*dG*d[5mC]*dG*dA*d[5mC]*d[5mC]*dT*d[5mC]*kG*k[5mC]*eA; antisense) [compound 548171] | 47%
6 | 548222 (eA*eA*kT*d[5mC]*dA*dT*dG*d[5mC]*d[5mC]*dT*dT*dG*dT*kG*kG*eG; antisense) [compound 548222] | 32%
7 | 548225 (eA*eG*kT*d[5mC]*dA*d[5mC]*d[5mC]*dA*dT*dA*dG*dA*d[5mC]*k[5mC]*k[5mC]*eA; antisense) [compound 548225] | 48%
8 | 548164 (eG*eA*k[5mC]*d[5mC]*dT*d[5mC]*dG*d[5mC]*dA*dT*dT*dG*dT*k[5mC]*kA*eG; antisense) [compound 548164] | 40%
9 | 548179 (eG*eG*kA*dG*dA*dT*d[5mC]*dT*d[5mC]*dA*dG*dT*dT*kG*k[5mC]*eG; antisense) [compound 548179] | 52%

same assay, conditions: HepaRG cells, electroporation with 1,000 nM antisense oligonucleotide, approx. 24 hours, PKK mRNA by RT-PCR (RTS3454), relative to untreated control cells; Table 26 experiment

Row | Substance | % inhibition
10 | 548275 (antisense eG*eT*k[5mC]*d[5mC]*d[5mC]*dA*dA*dG*dA*d[5mC]*dA*dT*dT*k[5mC]*k[5mC]*eT) [compound 548275] | 40%
11 | 548260 (antisense eA*eG*kG*dA*dG*dT*dT*dT*dG*dT*d[5mC]*dA*dG*kA*kA*e[5mC]) [compound 548260] | 28%
12 | 548287 (eG*eT*k[5mC]*dA*dA*dA*dG*dA*dG*dT*dG*dT*d[5mC]*k[5mC]*kA*e[5mC]; antisense) [compound 548287] | 38%
13 | 548256 (antisense eG*e[5mC]*kT*d[5mC]*d[5mC]*d[5mC]*d[5mC]*dA*dT*dG*d[5mC]*dA*dT*kA*k[5mC]*eT) [compound 548256] | 25%
14 | 548255 (antisense e[5mC]*e[5mC]*k[5mC]*d[5mC]*dA*dT*dG*d[5mC]*dA*dT*dA*d[5mC]*dT*k[5mC]*kG*e[5mC]) [compound 548255] | 38%

same assay, conditions: HepaRG cells, electroporation with 1,000 nM antisense oligonucleotide, approximately 24 hours, primer probe set RTS3454, relative to untreated control cells; experiment of Table 23

Row | Substance | % inhibition
15 | 547994 (antisense e[5mC]*e[5mC]*kA*dT*d[5mC]*d[5mC]*dA*dT*dA*dG*dA*dT*dA*kA*kT*e[5mC]) [compound 547994] | 53%
16 | 547937 (eT*eG*kT*dG*dA*d[5mC]*dT*d[5mC]*dG*dA*dT*dT*dT*kT*k[5mC]*e[5mC]; antisense) [compound 547937] | 56%
17 | 547974 (antisense eA*eA*kA*dG*dT*d[5mC]*dA*dA*d[5mC]*dT*d[5mC]*d[5mC]*d[5mC]*kG*kG*eG) [compound 547974] | 52%
18 | 547992 (antisense e[5mC]*e[5mC]*kT*dT*dA*d[5mC]*dA*dG*dT*d[5mC]*dT*dT*d[5mC]*kT*kG*eG) [compound 547992] | 17%

same assay, conditions: HepaRG cells, electroporation with 1,000 nM antisense oligonucleotide, approximately 24 hours, primer probe set RTS3454, relative to untreated control cells; experiment of Table 24

Row | Substance | % inhibition
19 | 548008 (eT*e[5mC]*kT*d[5mC]*dA*dA*dA*dG*dA*dG*dT*dA*dA*k[5mC]*k[5mC]*eA; antisense) [compound 548008] | 71%
20 | 548015 (eT*eT*kG*dT*d[5mC]*d[5mC]*d[5mC]*d[5mC]*dA*dG*dT*dG*dT*kT*kA*e[5mC]; antisense) [compound 548015] | 50%
21 | 548071 (eA*eG*kA*dA*dG*d[5mC]*d[5mC]*d[5mC]*d[5mC]*dA*dT*d[5mC]*d[5mC]*kG*kG*eT; antisense) [compound 548071] | 55%
22 | 548034 (eA*eT*kA*dG*dA*dT*dG*d[5mC]*dG*d[5mC]*d[5mC]*dA*dA*kA*k[5mC]*eA; antisense) [compound 548034] | 31%

same assay, conditions: PKK mRNA, HepaRG cells, 1,000 nM antisense oligonucleotide; Table 31

Row | Substance | % inhibition
23 | 548641 (antisense eG*e[5mC]*kA*dT*d[5mC]*dA*dT*dG*d[5mC]*dT*dT*dA*d[5mC]*kT*kG*e[5mC]) [compound 548641] | 23%
24 | 548662 (antisense eT*eG*k[5mC]*dT*dT*dA*dA*dA*dA*dG*dT*d[5mC]*dT*k[5mC]*k[5mC]*e[5mC]) [compound 548662] | 5%

same assay, conditions: Table 19; HepaRG cells, electroporation with 1,000 nM antisense oligonucleotide, approximately 24 hours; PKK mRNA by RT-PCR (RTS3454), relative to untreated control cells

Row | Substance | % inhibition
25 | 548094 (antisense eG*eT*kT*dT*dG*d[5mC]*dA*dA*dA*d[5mC]*dT*dA*dA*kG*kG*eG) [compound 548094] | 74%

same assay, conditions: Table 20; HepaRG cells, electroporation with 1,000 nM antisense oligonucleotide, approximately 24 hours; PKK mRNA by RT-PCR (RTS3454), relative to untreated control cells

Row | Substance | % inhibition
26 | 547855 (antisense eT*eA*kT*d[5mC]*dA*dA*d[5mC]*dT*d[5mC]*d[5mC]*dT*dT*dT*kA*kT*eA) [compound 547855] | 59%
27 | 547866 (antisense eT*eT*kA*dA*dA*dA*dT*dT*dG*dA*d[5mC]*dT*d[5mC]*k[5mC]*kT*e[5mC]) [compound 547866] | 46%

same assay, conditions: Table 21 experiment; HepaRG cells, electroporation with 1,000 nM antisense oligonucleotide, approx. 24 hours; PKK mRNA by RT-PCR (RTS3454), relative to untreated control cells

Row | Substance | % inhibition
28 | 547792 (antisense eT*e[5mC]*k[5mC]*dA*d[5mC]*dA*dG*dG*dA*dA*dA*d[5mC]*dT*kG*kT*eA) [compound 547792] | 31%

same assay, conditions: Table 22 experiment; HepaRG cells, electroporation with 1,000 nM antisense oligonucleotide, approx. 24 hours; PKK mRNA by RT-PCR (RTS3454), relative to untreated control cells

Row | Substance | % inhibition
29 | 547855 (antisense eT*eA*kT*d[5mC]*dA*dA*d[5mC]*dT*d[5mC]*d[5mC]*dT*dT*dT*kA*kT*eA) [compound 547855] | 38%
30 | 547866 (antisense eT*eT*kA*dA*dA*dA*dT*dT*dG*dA*d[5mC]*dT*d[5mC]*k[5mC]*kT*e[5mC]) [compound 547866] | 40%
31 | 547888 (eT*e[5mC]*k[5mC]*dG*dG*dT*dA*d[5mC]*dT*d[5mC]*dT*dG*d[5mC]*k[5mC]*kT*eT; antisense) [compound 547888] | 99%

same assay, conditions: Table 27; HepaRG cells, 1,000 nM antisense oligonucleotide; human PKK mRNA

Row | Substance | % inhibition
32 | 548360 (antisense e[5mC]*eA*kA*dG*dA*d[5mC]*dA*dT*d[5mC]*dA*dG*dT*dA*kG*k[5mC]*eT) [compound 548360] | 45%
33 | 548325 (e[5mC]*e[5mC]*k[5mC]*dA*d[5mC]*dT*dG*dA*d[5mC]*dT*dG*dA*d[5mC]*kT*kA*e[5mC]; antisense) [compound 548325] | 27%

same assay, conditions: Table 28; HepaRG cells, 1,000 nM antisense oligonucleotide; human PKK mRNA

Row | Substance | % inhibition
34 | 548505 (antisense eG*eG*kA*d[5mC]*dA*dA*dT*dG*d[5mC]*d[5mC]*dT*dA*dT*kG*k[5mC]*eT) [compound 548505] | 21%
35 | 548480 (eG*e[5mC]*k[5mC]*dA*d[5mC]*dG*d[5mC]*d[5mC]*d[5mC]*dT*dT*dA*dG*k[5mC]*kA*eG; antisense) [compound 548480] | 20%
36 | 548470 (eG*eG*kT*dG*dG*dA*dA*dT*dG*dT*d[5mC]*dA*dT*kG*kG*e[5mC]; antisense) [compound 548470] | 56%
37 | 548495 (antisense eT*eT*kG*dT*dG*dA*d[5mC]*d[5mC]*d[5mC]*d[5mC]*d[5mC]*d[5mC]*dA*k[5mC]*k[5mC]*eG) [compound 548495] | 55%

same assay, conditions: Table 30; human PKK mRNA, HepaRG cells, 1,000 nM antisense oligonucleotide

Row | Substance | % inhibition
38 | 548388 (eA*eA*kG*dA*dG*dG*dA*dT*dG*dT*d[5mC]*dA*dG*kG*k[5mC]*eT; antisense) [compound 548388] | 4%
39 | 548416 (antisense e[5mC]*eT*kA*dT*dA*dA*d[5mC]*dT*d[5mC]*dT*dA*dA*d[5mC]*kA*kG*eT) [compound 548416] | 9%
40 | 548443 (antisense eG*eT*kT*dT*d[5mC]*d[5mC]*dT*dA*dT*dA*dA*d[5mC]*dA*kG*kT*eA) [compound 548443] | 12%
41 | 548454 (eA*e[5mC]*kT*dG*dT*dA*d[5mC]*d[5mC]*dT*dA*dT*dA*dA*k[5mC]*kA*eG; antisense) [compound 548454] | 17%
